The values that follow come from patent US20060003362A1, “ENT1 transporters expressed in cancer cells” (Xenoport, Inc., priority 2004, published 2006).

The structures appear in SMILES notation.

For this test, the target named is T1, ENT1 (Homo sapiens, UniProt Q99808).
T1 construct: expressed in transfected cells; host or cells: Xenopus oocytes injected with ENT1 cRNA
T1 sequence (Q99808 1-456): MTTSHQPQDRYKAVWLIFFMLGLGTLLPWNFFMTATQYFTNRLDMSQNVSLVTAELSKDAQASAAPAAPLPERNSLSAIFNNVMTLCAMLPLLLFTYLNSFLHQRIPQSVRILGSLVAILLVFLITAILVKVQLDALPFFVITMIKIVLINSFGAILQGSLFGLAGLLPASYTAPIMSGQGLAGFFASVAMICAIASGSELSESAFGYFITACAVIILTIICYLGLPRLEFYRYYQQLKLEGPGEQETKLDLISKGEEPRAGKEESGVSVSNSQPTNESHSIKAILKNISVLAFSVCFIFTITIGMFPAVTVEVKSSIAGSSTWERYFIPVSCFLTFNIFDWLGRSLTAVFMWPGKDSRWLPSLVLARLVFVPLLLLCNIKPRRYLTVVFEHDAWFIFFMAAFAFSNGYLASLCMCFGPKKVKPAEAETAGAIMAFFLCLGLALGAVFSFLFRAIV
The experiment in a line: Uptake of radiolabel into Xenopus oocytes expressing ENT1. Format: cell-based. The conditions noted are these: Xenopus oocytes injected with ENT1 cRNA, 10 minutes, scintillation counting. The procedure: To assess transport function of a specific transporter protein, it can be desirable to clone the cDNA and express the protein in cells that have low endogenous transport activity. Human ENT1 was cloned by PCR, fully sequenced, and subcloned into plasmids that can be used for expression in mammalian cells or Xenopus oocytes. […] For expression in Xenopus oocytes, in vitro ENT1 cRNA was prepared and injected into defoliculated oocytes.
Oocytes expressing ENT1 or control oocytes not expressing ENT1 were incubated in an oocyte ringers (ND96) buffer (90 mM NaCl, 10 mM HemiNa HEPES, 2 mM KCl, 1 mM MgCl, 1.8 mM CaCl2) containing 0.5% bovine serum albumin and 3H urindine (10^6 CPM/ml) for 10 minutes. Oocytes were washed and uptake of radiolabel quantified by scintillation counting.

As for `Nc1ccn([C@@H]2O[C@H](CO)[C@@H](O)C2(F)F)c(=O)n1` [^3H-gemcitabine, gemcitabine], the “uptake into oocytes expressing ENT1 versus noninjected controls” value is “higher levels”.
